How the values were obtained:
Assay in all cases: relative viability (nuclei count vs DMSO), 5 days (fraction); higher = more cells survive
[1] = compound: O=c1ncccn1[C@@H]1O[C@H](CO)[C@@H](O)[C@H]1O [Zebularine] + O=C(c1cc(Cc2n[nH]c(=O)c3ccccc23)ccc1F)N1CCN(C(=O)C2CC2)CC1 [Olaparib] (partner 8 µM)
Procedure, shortened: (§1)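 Lung cancer cell lines were seeded in 1536-well plates and dosed by pin tool the next day, with either a single drug or a fixed anchor-drug dose combined with five library-drug doses (not always all listed) spaced in √10 steps. Five days later, one step fixed the cells and stained their nuclei (final 0.05% Triton X-100, 1% formaldehyde, 1 ug/ml Hoechst), and nuclei were counted on 4× images. Relative viability is the nuclei count in treated wells divided by the count in vehicle wells, and each value is the median of duplicate plates.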

[2] = compound: O=c1ncccn1[C@@H]1O[C@H](CO)[C@@H](O)[C@H]1O [Zebularine] + Cc1cc(Nc2cc(N3CCN(C)CC3)nc(Sc3ccc(NC(=O)C4CC4)cc3)n2)n[nH]1 [Tozasertib] (partner 0.1 µM)
Procedure, shortened: as §1

[3] = compound: CC(C)CCN1c2nc(Nc3cc(F)c(O)c(F)c3)ncc2N(C)C(=O)C1C [BI-D1870] + CS(=O)(=O)N1CCN(Cc2cc3nc(-c4cccc5[nH]ncc45)nc(N4CCOCC4)c3s2)CC1 [Pictilisib] (partner 1 µM)
Procedure, shortened: as §1

[4] = compound: CC(C)CCN1c2nc(Nc3cc(F)c(O)c(F)c3)ncc2N(C)C(=O)C1C [BI-D1870] + COc1cc2c(Oc3ccc(NC(=O)C4(C(=O)Nc5ccc(F)cc5)CC4)cc3F)ccnc2cc1OCCCN1CCOCC1 [Foretinib] (partner 0.25 µM)
Procedure, shortened: as §1

Cell Line | relative viability ([1]; first compound 1 µM) | relative viability ([1]; first compound 3.162 µM) | relative viability ([1]; first compound 10 µM) | relative viability ([1]; first compound 31.62 µM) | relative viability ([1]; first compound 100 µM) | relative viability ([2]; first compound 1 µM) | relative viability ([2]; first compound 3.162 µM) | relative viability ([2]; first compound 10 µM) | relative viability ([2]; first compound 31.62 µM) | relative viability ([2]; first compound 100 µM) | relative viability ([3]; first compound 0.04 µM) | relative viability ([3]; first compound 0.1265 µM) | relative viability ([3]; first compound 0.4 µM) | relative viability ([3]; first compound 1.265 µM) | relative viability ([3]; first compound 4 µM) | relative viability ([4]; first compound 0.04 µM) | relative viability ([4]; first compound 0.1265 µM) | relative viability ([4]; first compound 0.4 µM) | relative viability ([4]; first compound 1.265 µM) | relative viability ([4]; first compound 4 µM)
COR-L23 | 0.336 | 0.329 | 0.277 | 0.178 | 0.138 | 0.216 | 0.263 | 0.186 | 0.181 | 0.119 | 1.08 | 0.695 | 0.743 | 0.732 | 0.643 | 1.01 | 0.894 | 0.938 | 1.01 | 0.905
HCC-78 | 0.76 | 0.652 | – | 0.444 | 0.291 | 0.423 | 0.429 | 0.219 | 0.278 | 0.259 | 0.213 | 0.185 | 0.249 | 0.21 | 0.236 | 0.599 | 0.522 | 0.529 | 0.592 | 0.481
NCI-H727 | 0.728 | 0.886 | 0.732 | 0.68 | 0.775 | 0.639 | 0.645 | 0.602 | 0.623 | 0.386 | 0.425 | 0.35 | 0.354 | 0.509 | 0.366 | 0.793 | 0.931 | 0.883 | 0.871 | 0.739
NCI-H2087 | 0.607 | 0.478 | 0.323 | 0.34 | 0.239 | 0.255 | 0.338 | 0.215 | 0.225 | 0.155 | 0.963 | 0.867 | 0.86 | 1.03 | 0.665 | 1.16 | 1.23 | 1.27 | 1.12 | 0.982
BEN | 0.819 | 0.623 | 0.608 | 0.428 | 0.506 | 0.612 | 0.563 | 0.379 | 0.354 | 0.43 | 0.56 | 0.608 | 0.566 | 0.608 | 0.507 | 0.654 | 0.609 | 0.76 | 1.16 | 0.77
LCLC-103H | 0.839 | 0.829 | 0.597 | 0.632 | 0.637 | 0.448 | 0.43 | 0.402 | 0.471 | 0.355 | 0.631 | 0.573 | 0.563 | 0.573 | 0.494 | 0.842 | 0.662 | 0.777 | 0.866 | 0.566
EKVX | 0.952 | 0.813 | – | 0.757 | 0.664 | 0.44 | 0.409 | 0.3 | 0.374 | 0.335 | 0.488 | 0.388 | 0.412 | 0.453 | 0.403 | 1.3 | 0.593 | 0.619 | 0.935 | 0.371
LXF-289 | 1.06 | 0.995 | 0.549 | 0.31 | 0.275 | 0.19 | 0.169 | 0.124 | 0.0978 | 0.116 | 0.833 | 0.763 | 0.798 | 0.745 | 0.665 | 1.01 | 0.942 | 0.956 | 0.941 | 0.88
ABC-1 | 0.782 | 0.696 | 0.666 | 0.702 | 0.522 | 0.193 | 0.196 | 0.164 | 0.189 | 0.148 | 0.751 | 0.673 | 0.633 | 0.744 | 0.566 | 1.16 | 0.984 | 1.1 | 1.42 | 0.913
NCI-H650 | 0.351 | 0.332 | 0.307 | 0.28 | 0.177 | 0.756 | 0.656 | 0.524 | 0.346 | 0.238 | 0.9 | 0.745 | 0.87 | 0.811 | 0.651 | 1.03 | 0.937 | 0.968 | 1.04 | 0.894
NCI-H1650 | 0.731 | 0.642 | 0.634 | 0.912 | 0.39 | 0.509 | 0.308 | 0.325 | 0.361 | 0.341 | 0.632 | 0.484 | 0.527 | 0.533 | 0.558 | 1.31 | 0.756 | 1.08 | 1.18 | 1.27
NCI-H2085 | 0.782 | 0.709 | 0.568 | 0.482 | 0.399 | 0.9 | 0.804 | 0.688 | 0.609 | 0.529 | 0.439 | 0.494 | 0.413 | 0.518 | 0.558 | 0.82 | 0.869 | 0.832 | 0.824 | 0.754
NCI-H1793 | 1.02 | 0.906 | 0.37 | 0.333 | 0.27 | 0.401 | 0.354 | – | 0.206 | 0.174 | 0.295 | 0.308 | 0.227 | 0.347 | 0.288 | 0.72 | 0.561 | 0.63 | 0.737 | 0.943
LC-2-ad | 0.729 | 0.681 | 0.434 | 0.201 | 0.254 | 0.413 | 0.427 | 0.347 | 0.422 | 0.396 | 0.536 | 0.456 | 0.498 | 0.0168 | 0.474 | 1.01 | 0.932 | 0.946 | 0.975 | 0.626
COR-L 105 | 0.715 | 0.671 | 0.766 | 1.02 | 0.644 | 0.316 | 0.285 | 0.345 | 0.367 | 0.319 | 0.4 | 0.405 | 0.407 | 0.474 | 0.386 | 1.29 | 1.12 | 1.1 | 1.47 | 1.12
NCI-H1355 | 0.625 | 0.426 | 0.375 | 0.28 | 0.272 | 0.56 | 0.516 | 0.484 | 0.328 | 0.34 | 0.433 | 0.365 | 0.398 | 0.504 | 0.323 | 1.05 | 0.863 | 0.91 | 1.07 | 0.967

— the supplement of paper PMC10307832
